According to PMC5390467, “Novel lead structures with both Plasmodium falciparum gametocytocidal and asexual blood stage activity identified from high throughput compound screening” (Malaria Journal, 2017):

Columns and labels:
[1] = test system: P. falciparum NF54 gametocytes; experiment: gametocyte viability assay (AlamarBlue); assay type: cell-based, Plasmodium falciparum; conditions: for IC50: P. falciparum NF54 stage III-V gametocytes, 72 h, AlamarBlue, mean ± SD, n = 3; for Asexual/Gametocyte: ratio of asexual IC50 to gametocyte IC50; for ratio of IC50s, lower IC50 in gametocyte viability assay than in asexual parasite growth assay: asexual versus gametocyte
Experimental: (§1) Asexual parasites of P. falciparum strain NF54 were cultured as described previously. Briefly, parasites were maintained in RPMI 1640 medium containing 10% positive human serum + erythrocytes (5% haematocrit), 2.5% sodium bicarbonate and 11 µg/mL gentamicin at 37 °C with 5% CO2, 5% O2 and 90% N2. Gametocyte cultures were set up at 0.1% parasitaemia and on days 9–10 treated with 50 mM N-acetylglucosamine (NAG) to block further asexual growth. Stage III–V gametocytes were isolated by Percoll density gradient centrifugation on day 12 and returned to culture for 24 h before being used in the assay. At the time of the assay over 73% of the gametocytes were stage IV or V (Additional file 1). HepG2 cells (ATCC, cat. no. 77400) were cultured in 175-cm^2 tissue culture flasks with 30 ml growth medium at 37 °C in a 5% CO2 and 5% O2 humidified atmosphere. Growth medium was made with Dulbecco’s Modified Eagle Medium with 10% fetal bovine serum (FBS). Growth medium was replaced every other day and cells were passaged at 75% confluence.
Compounds from the Sytravon library (a retired Pharma screening collection that contains a diversity of novel small molecules, with an emphasis on medicinal chemistry-tractable scaffolds) were obtained as powder samples and dissolved in DMSO as […] stock solutions. Compound screening experiments were performed as previously described. In the primary screen, two concentrations for each compound were tested. No technical and biological replicates were involved. In the follow-up confirmation studies, three biological replicates were tested for each compound in both parasite assays. The positive control was 46 µM of Torin 2 and negative control was DMSO. Briefly, 2.5 μL/well incomplete medium was dispensed into each well of 1536-well plates using the Multidrop Combi followed by 23 nL compound transferring using the NX-TR Pintool (WAKO Scientific Solutions, San Diego, CA). Then, 2.5 μL/well of gametocytes was dispensed with a seeding density of 20,000 cells/well using the Multidrop Combi. The assay plates were incubated for 72 h at 37 °C with 5% CO2. After addition of 5 μL/well of 2X AlamarBlue dye (Life Technologies, cat. no. DAL1100), the plates were incubated for 24 h at 37 °C with 5% CO2 and then were read in a fluorescence detection mode (Ex = 525 nm, Em = 598 nm) on a ViewLux plate reader (PerkinElmer).

[2] = test system: P. falciparum NF54 asexual parasites; experiment: asexual parasite growth inhibition assay (SYBR Green); assay type: cell-based, Plasmodium falciparum; conditions: 72 h, mean ± SD, n = 3
Experimental: as §1
Drug activity on asexual stage parasites was tested using a SYBR Green assay as described previously. Briefly, 2.5 μL/well complete culture medium was dispensed into each well of 1536-well plates using the Multidrop Combi followed by 23 nL compound transferring using the NX-TR Pintool. Parasites were diluted to 0.5% parasitaemia in complete culture medium with 2% haematocrit and drugs diluted in DMSO (≤0.5%). The pre-diluted parasites were dispensed into a 1536-well plate (2.5 μL/well). After 72 h incubation under the standard culture conditions, 5 μL/well of lysis buffer containing SYBR Green I was added to the parasite culture and incubated for 30 min at room temperature. The fluorescence of each well was measured in a fluorescence detection mode (Ex = 490 nm, Em = 520 nm) using a ViewLux plate reader (PerkinElmer).

HepG2 cells = experiment: HepG2 cytotoxicity assay (AlamarBlue); assay type: cell-based, human; conditions: for HepG2, IC50 (dash = less than 25% cytotoxicity) / IC50 / cytotoxicity at 46 µM: HepG2 cells, 72 h, AlamarBlue; for HepG2, IC50 (dash = less than 25% cytotoxicity) / cytotoxicity at 46 µM: up to 46 µM; for IC50 / maximum response, HepG2 cytotoxicity: titration 0.001 to 46 µM; for IC50: mean ± SD, n = 3; for cytotoxicity at 46 µM: Homo sapiens, read-out: HepG2, IC50 (dash = less than 25% cytotoxicity)
Experimental: as §1
Drug activity on HepG2 was tested using an AlamarBlue assay as previously described. Briefly, 5 μL/well of HepG2 cells were dispensed with a seeding density of 1000 cells/well using the Multidrop Combi. 23 nL compound was transferred using the NX-TR Pintool. After 72 h incubation under the standard culture condition, 5 μL/well of 2X AlamarBlue dye was added to the cells, the plates were incubated for 2 h at 37 °C with 5% CO2 and then were read in a fluorescence detection mode (Ex = 525 nm, Em = 598 nm) on a ViewLux plate reader.

SMILES | IC50 [1] [µM] | Asexual/Gametocyte [1] | IC50 [2] [µM] | HepG2, IC50 (dash = less than 25% cytotoxicity) (HepG2 cells) | IC50 (HepG2 cells) [µM] | maximum response, HepG2 cytotoxicity (HepG2 cells) [%] | IC50 ([1]; Plasmodium falciparum) [µM] | IC50 ([2]; Plasmodium falciparum) [µM] | cytotoxicity at 46 µM (HepG2 cells) [%] | ratio of IC50s, lower IC50 in gametocyte viability assay than in asexual parasite growth assay [1]
Cc1cc(Nc2ccc(Cl)cc2C)nc(-n2nc(C)cc2C)n1 [NCGC00134136] | 2.57 ± 0.48 | 1.60 | 4.12 ± 0.1 | – (Indicates compounds with less than 25% cytotoxicity at up to 46 µM) |  |  |  |  |  | 
COc1ccc(CCN2CCC(CNC(=O)c3cnn(-c4ccccc4)c3C3CCN(C(=O)OC(C)(C)C)CC3)CC2)cc1 [NCGC00126987] | 30.6 ± 1.95 | 0.05 | 1.47 ± 0.04 |  | 38.6 ± 0.42 | 86.1 |  |  |  | 
COc1ccc(Nc2c(-c3ccccn3)nc3ccc(Cl)cn23)cc1 [NCGC00104528] | 8.91 ± 0.2 | 1.56 | 13.9 ± 0.93 | – (Indicates compounds with less than 25% cytotoxicity at up to 46 µM) |  |  |  |  |  | 
Cc1ccc2nc(-c3ccccn3)c(Nc3ccccc3C)n2c1 [NCGC00106087] | 3.34 ± 0.51 | 2.24 | 7.49 ± 4.11 | – (Indicates compounds with less than 25% cytotoxicity at up to 46 µM) |  |  |  |  |  | 
Cc1cc(Nc2ccc(F)cc2F)nc(-n2nc(C)cc2C)n1 [NCGC00134158] | 2.08 ± 0.18 | 2.26 | 4.7 ± 0.52 | – (Indicates compounds with less than 25% cytotoxicity at up to 46 µM) |  |  |  |  |  | 
Cc1cccc2nc(-c3ccccn3)c(Nc3ccccc3)n12 [NCGC00106055] | 3.98 ± 1.12 | 1.05 | 4.18 ± 0.68 | – (Indicates compounds with less than 25% cytotoxicity at up to 46 µM) |  |  |  |  |  | 
Cc1ccc2nc(-c3ccccn3)c(Nc3ccc(F)cc3)n2c1 [NCGC00106091] | 2.45 ± 0.42 | 1.84 | 4.51 ± 1.29 | – (Indicates compounds with less than 25% cytotoxicity at up to 46 µM) |  |  |  |  |  | 
Cc1ccn2c(Nc3ccccc3C)c(-c3ccccn3)nc2c1 [NCGC00106119] | 2.82 ± 0.3 | 1.50 | 4.22 ± 0.29 | – (Indicates compounds with less than 25% cytotoxicity at up to 46 µM) |  |  |  |  |  | 
CCc1ccc(Oc2c(C(F)(F)F)oc3c(CN4CCN(CC)CC4)c(O)ccc3c2=O)cc1 [NCGC00101506] | 4.82 ± 0.21 | 0.11 | 0.54 ± 0.05 | – (Indicates compounds with less than 25% cytotoxicity at up to 46 µM) |  |  |  |  |  | 
Cc1ccc(C)c(Oc2c(C(F)(F)F)oc3c(CN4CCN(C)CC4)c(O)ccc3c2=O)c1 [NCGC00141020] | 4.86 ± 0.03 | 0.22 | 1.07 ± 0.37 | – (Indicates compounds with less than 25% cytotoxicity at up to 46 µM) |  |  |  |  |  | 
CCOc1ccccc1N(C)C(=O)Cn1cnc2sc(C)c(S(=O)(=O)N3CCC(C)CC3)c2c1=O [NCGC00104044] |  | 0.26 | 9.94 ± 0.93 | – (Indicates compounds with less than 25% cytotoxicity at up to 46 µM) |  |  |  |  |  | 
Cc1ccc(Nc2cc(C)nc(-n3nc(C)cc3C)n2)cc1 [NCGC00134154] |  | 2.38 |  |  |  |  | 1.19 ± 0.34 | 2.83 ± 0.31 | < 25 | 
CCN(CC)CCCNC(=O)CSc1c2c(nc3cc(Cl)ccc13)CCCC2 [NCGC00110901] | 10.6 ± 1.32 | 3.41 | 36.1 ± 15.2 | – (Indicates compounds with less than 25% cytotoxicity at up to 46 µM) |  |  |  |  |  | ~ fourfold
COc1ccc(Nc2cc(C)nc(-n3nc(C)cc3C)n2)cc1Cl [NCGC00134126] |  | 4.02 |  |  |  |  | 1.19 ± 0.05 | 4.78 ± 0.43 | < 25 | ~ fourfold
CCCCc1ccc(Nc2cc(C)nc(-n3nc(C)cc3C)n2)cc1 [NCGC00134132] |  | 1.87 |  |  |  |  | 1.29 ± 0.32 | 2.41 ± 0.32 | < 25 | 
Cc1cc(Nc2ccc(C(C)C)cc2)nc(-n2nc(C)cc2C)n1 [NCGC00134128] |  | 1.64 |  |  |  |  | 1.18 ± 0.17 | 1.93 ± 0.13 | < 25 | 
CN1CCN(c2nc3c(S(=O)(=O)c4ccc(Br)cc4)nnn3c3ccsc23)CC1 [NCGC00123034] | 35.2 ± 4.52 | 0.92 | 32.1 ± 12.6 | – (Indicates compounds with less than 25% cytotoxicity at up to 46 µM) |  |  |  |  |  | 
Cc1cc(Nc2ccc(F)cc2)nc(-n2nc(C)cc2C)n1 [NCGC00134124] |  | 3.85 |  |  |  |  | 1.55 ± 0.11 | 5.96 ± 0.7 | < 25 | ~ fourfold
COc1ccc(NC(=O)c2ccc3c(c2)N(Cc2cccc(Cl)c2)C(=O)c2ccccc2[S+]3[O-])cc1Cl (centres unmarked) [NCGC00140326] | ~60 | 0.23 | 13.8 ± 0.82 | – (Indicates compounds with less than 25% cytotoxicity at up to 46 µM) |  |  |  |  |  | 
COc1ccccc1Cn1c(CNS(=O)(=O)c2cccc([N+](=O)[O-])c2)nc2cccnc21 [NCGC00134795] | 4.25 ± 0.64 | 0.23 | 0.96 ± 0.3 | – (Indicates compounds with less than 25% cytotoxicity at up to 46 µM) |  |  |  |  |  | 
Cc1cccc(Nc2cc(C)nc(-n3nc(C)cc3C)n2)c1 [NCGC00134130] |  | 2.30 |  |  |  |  | 1.42 ± 0.24 | 3.26 ± 0.5 | < 25 | 
O=C(NCc1ccc(Cl)cc1)C1CCCN(C(=O)c2cnn(-c3ccc(F)cc3)c2-n2cccc2)C1 (centres unmarked) [NCGC00124960] | ~60 | 0.59 | 35.6 ± 1.77 | – (Indicates compounds with less than 25% cytotoxicity at up to 46 µM) |  |  |  |  |  | 
CC(C)c1ccccc1Oc1c(C(F)(F)F)oc2c(CN3CCN(C)CC3)c(O)ccc2c1=O [NCGC00100597] | 6.04 ± 1.9 | 0.10 | 0.63 ± 0.05 | – (Indicates compounds with less than 25% cytotoxicity at up to 46 µM) |  |  |  |  |  | 
CC(C)(C)OC(=O)N1CCC(c2c(C(=O)NCCN3CCOCC3)cnn2-c2ccccc2)CC1 [NCGC00127015] | 20.3 ± 0.31 | 0.15 | 3.05 ± 0.27 |  | 38.4 | 87.2 |  |  |  | 
Cc1ccn2c(Nc3ccc(F)cc3)c(-c3ccccn3)nc2c1 [NCGC00106780] |  | 1.94 |  |  |  |  | 1.82 ± 0.11 | 3.53 ± 1.21 | < 25 | 
CC(C)(C)OC(=O)N1CCC(c2c(C(=O)NCCN3CCC(Cc4ccccc4)CC3)cnn2-c2ccccc2)CC1 [NCGC00127017] | 11.9 ± 2.05 | 0.29 | 3.44 ± 0.24 |  | 25.3 | 87.6 |  |  |  | 
CC(C)c1ccc(Nc2c(-c3ccccn3)nc3ccccn23)cc1 [NCGC00104490] |  | 1.72 |  |  |  |  | 1.29 ± 0.29 | 2.22 ± 0.35 | < 25 | 
